Reference: US20230041743A1, “1,8-NAPHTHYRIDIN-2-ONE COMPOUNDS FOR THE TREATMENT OF AUTOIMMUNE DISEASE” (Hoffmann-La Roche Inc., priority 2019, published 2023)
pIC50: −log10 of the molar value.

Legend:
human TLR8 = target: T1, human TLR8 (Homo sapiens, UniProt Q9NR97); experiment: HEK293-Blue-hTLR-8 cells assay (SEAP reporter, R848 stimulation); format: cell-based; details: HEK293-Blue-hTLR8 cells, R848 ligand, 20 hrs incubation; read-out: HEK/hTLR8 IC50
T1 construct: host or cells: HEK293 (HEK-Blue hTLR8)
T1 sequence (Q9NR97 27-1041): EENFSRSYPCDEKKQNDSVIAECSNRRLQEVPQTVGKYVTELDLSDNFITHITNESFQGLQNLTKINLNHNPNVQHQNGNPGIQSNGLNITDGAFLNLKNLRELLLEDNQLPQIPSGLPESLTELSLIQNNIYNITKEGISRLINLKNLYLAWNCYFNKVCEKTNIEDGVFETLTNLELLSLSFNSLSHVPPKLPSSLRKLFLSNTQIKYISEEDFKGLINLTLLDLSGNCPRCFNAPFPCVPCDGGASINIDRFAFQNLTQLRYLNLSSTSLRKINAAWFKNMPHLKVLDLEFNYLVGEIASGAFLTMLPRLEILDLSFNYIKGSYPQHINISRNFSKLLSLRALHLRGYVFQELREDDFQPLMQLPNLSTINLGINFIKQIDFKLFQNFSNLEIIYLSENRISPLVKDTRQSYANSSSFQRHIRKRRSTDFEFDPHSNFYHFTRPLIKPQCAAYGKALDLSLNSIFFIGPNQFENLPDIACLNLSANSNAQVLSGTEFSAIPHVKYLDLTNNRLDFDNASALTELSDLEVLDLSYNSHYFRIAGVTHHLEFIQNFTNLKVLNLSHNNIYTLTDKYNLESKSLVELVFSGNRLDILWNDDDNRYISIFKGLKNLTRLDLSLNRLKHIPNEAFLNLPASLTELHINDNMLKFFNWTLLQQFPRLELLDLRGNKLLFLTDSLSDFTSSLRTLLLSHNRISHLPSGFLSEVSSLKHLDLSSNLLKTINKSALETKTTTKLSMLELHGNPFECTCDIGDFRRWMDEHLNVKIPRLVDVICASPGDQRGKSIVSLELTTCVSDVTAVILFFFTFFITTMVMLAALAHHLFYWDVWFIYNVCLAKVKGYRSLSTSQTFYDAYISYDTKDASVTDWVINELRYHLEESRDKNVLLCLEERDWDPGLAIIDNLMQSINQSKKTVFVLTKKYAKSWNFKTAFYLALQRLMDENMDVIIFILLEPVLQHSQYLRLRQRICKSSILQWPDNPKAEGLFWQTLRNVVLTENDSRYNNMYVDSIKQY
Description: HEK293-Blue-hTLR-8 Cells Assay:
A stable HEK293-Blue-hTLR-8 cell line was purchased from InvivoGen (Cat. #: hkb-htlr8, San Diego, Calif., USA). These cells were originally designed for studying the stimulation of human TLR8 by monitoring the activation of NF-κB. A SEAP (secreted embryonic alkaline phosphatase) reporter gene was placed under the control of the IFN-β minimal promoter fused to five NF-κB and AP-1-binding sites. The SEAP was induced by activating NF-κB and AP-1 via stimulating HEK-Blue hTLR8 cells with TLR8 ligands. Therefore the reporter expression was declined by TLR8 antagonist under the stimulation of a ligand, such as R848, for incubation of 20 hrs. The cell culture supernatant SEAP reporter activity was determined using QUANTI-Blue™ kit (Cat. #: rep-qb1, Invivogen, San Diego, Ca, USA) at a wavelength of 640 nm, a detection medium that turns purple or blue in the presence of alkaline phosphatase.
HEK293-Blue-hTLR8 cells were incubated at a density of 250,000-450,000 cells/mL in a volume of 170 μL in a 96-well plate in Dulbecco's Modified Eagle's medium (DMEM) containing 4.5 g/L glucose, 50 U/mL penicillin, […], […], 2 mM L-glutamine, 10% (v/v) heat-inactivated fetal bovine serum with addition of 20 μL test compound in a serial dilution in the presence of final DMSO at 1% and 10 μL of 60 uM R848 in above DMEM, perform incubation under 37° C. in a CO2 incubator for 20 hrs. Then 20 μL of the supernatant from each well was incubated with 180 μL Quanti-blue substrate solution at 37° C. for 2 hrs and the absorbance was read at 620-655 nm using a spectrophotometer. The signaling pathway that TLR8 activation leads to downstream NF-κB activation has been widely accepted, and therefore similar reporter assay was modified for evaluating TLR8 antagonist.

[1] = Human microsomal stability assay; format: in vitro ADME; details: human liver microsomes, 1 μM test compound, 0.5 mg/mL protein, 37° C.; low <7.0, medium 7.0-16.2, high 16.2-23.2
Protocol: Human Microsomal Stability Assay
Human liver microsomes (Cat. NO.: 452117, Corning, USA) were preincubated with test compound for 10 minutes at 37° C. in 100 mM potassium phosphate buffer, pH 7.4. The reactions were initiated by adding NADPH regenerating system. The final incubation mixtures contained 1 μM test compound, 0.5 mg/mL liver microsomal protein, 1 mM MgCl2, 1 mM NADP, 1 unit/mL isocitric dehydrogenase and 6 mM isocitric acid in 100 mM potassium phosphate buffer, pH 7.4. After incubation times of 0, 3, 6, 9, 15 and 30 minutes at 37° C., 300 μL of cold ACN (including internal standard) was added to 100 μL incubation mixture to terminate the reaction. Following precipitation and centrifugation, 100 uL supernatant will be taken out and added 300 uL water.
The amount of compound remaining in the samples was determined by LC-MS/MS. Controls of no NADPH regenerating system at zero and 30 minutes were also prepared and analyzed. The results were categorized as: low (<7.0 mL/min/kg), medium (7.0-16.2 mL/min/kg) and high (16.2-23.2 mL/min/kg).

pIC50 (human TLR8) | CL (h) [1] [mL/min/kg] | Compound
8.40 | – | COC[C@@H]1CNCCN1c1ccc2c(c1)CN1[C@H](C)CN(c3cc(=O)n(C)c4ncccc34)C[C@H]21 [Example 10, 4-[(4R,10bS)-8-[(2S)-2-(methoxymethyl)piperazin-1-yl]-4-methyl-3,4,6,10b-tetrahydro-1H-pyrazino[2,1-a]isoindol-2-yl]-1-methyl-1,8-naphthyridin-2-one]
8.59 | – | C[C@@H]1CN(c2cc(=O)n(C)c3ncccc23)C[C@@H]2c3ccc(N4CC5(CNCCO5)C4)cc3CN12 [Example 3, 4-[(4R,10bS)-4-methyl-8-(5-oxa-2,8-diazaspiro[3.5]nonan-2-yl)-3,4,6,10b-tetrahydro-1H-pyrazino[2,1-a]isoindol-2-yl]-1-methyl-1,8-naphthyridin-2-one]
8.70 | 7.3 | C[C@@H]1CN(c2cc(=O)n(C)c3ncccc23)C[C@@H]2c3ccc([C@H]4CC[C@H](N5CCOCC5)CC4)cc3CN12 [Example 27A, 4-[(4R,10bS)-4-methyl-8-(trans-4-morpholinocyclohexyl)-3,4,6,10b-tetrahydro-1H-pyrazino[2,1-a]isoindol-2-yl]-1-methyl-1,8-naphthyridin-2-one]
8.82 | 8.8 | CO[C@H]1CCN(c2ccc3c(c2)CN2[C@H](C)CN(c4cc(=O)n(C)c5ncccc45)C[C@H]32)C[C@@H]1N [Example 9, 4-[(4R,10bS)-8-[(3S,4S)-3-amino-4-methoxy-1-piperidyl]-4-methyl-3,4,6,10b-tetrahydro-1H-pyrazino[2,1-a]isoindol-2-yl]-1-methyl-1,8-naphthyridin-2-one]
8.54 | 6.3 | C[C@@H]1CN(c2cc(=O)n(C)c3ncccc23)C[C@@H]2c3ccc(N4CC[C@@](C)(N)C4)cc3CN12 [Example 4, 4-[(4R,10bS)-8-[(3R)-3-amino-3-methyl-pyrrolidin-1-yl]-4-methyl-3,4,6,10b-tetrahydro-1H-pyrazino[2,1-a]isoindol-2-yl]-1-methyl-1,8-naphthyridin-2-one]
8.54 | – | C[C@@H]1CN(c2cc(=O)n(C)c3ncccc23)C[C@@H]2c3ccc(N4CC(C)(N)C4)cc3CN12 [Example 1, 4-[(4R,10bS)-8-(3-amino-3-methyl-azetidin-1-yl)-4-methyl-3,4,6,10b-tetrahydro-1H-pyrazino[2,1-a]isoindol-2-yl]-1-methyl-1,8-naphthyridin-2-one]
8.36 | – | C[C@@H]1CN(c2cc(=O)n(C)c3ncccc23)C[C@@H]2c3ccc([C@@H]4C[C@H]5COC[C@@H](C4)N5)cc3CN12 [Example 28B, 4-[(4R,10bS)-4-methyl-8-(exo-3-oxa-9-azabicyclo[3.3.1]nonan-7-yl)-3,4,6,10b-tetrahydro-1H-pyrazino[2,1-a]isoindol-2-yl]-1-methyl-1,8-naphthyridin-2-one]
8.31 | – | C[C@@H]1CN(c2cc(=O)n(C)c3ncccc23)C[C@@H]2c3ccc(N4C[C@H]5NCCO[C@@H]5C4)cc3CN12 [Example 6, 4-[(4R,10bS)-8-[(4aR,7aR)-3,4,4a,5,7,7a-hexahydro-2H-pyrrolo[3,4-b][1,4]oxazin-6-yl]-4-methyl-3,4,6,10b-tetrahydro-1H-pyrazino[2,1-a]isoindol-2-yl]-1-methyl-1,8-naphthyridin-2-one]
7.95 | 6.2 | C[C@@H]1CN(c2cc(=O)n(C)c3ncccc23)C[C@@H]2c3ccc(N4C[C@@H]5C[C@H]4CN5)cc3CN12 [Example 19, 4-[(4R,10bS)-8-[(1S,4S)-2,5-diazabicyclo[2.2.1]heptan-2-yl]-4-methyl-3,4,6,10b-tetrahydro-1H-pyrazino[2,1-a]isoindol-2-yl]-1-methyl-1,8-naphthyridin-2-one]
8.31 | – | C[C@@H]1CN(c2cc(=O)n(C)c3ncccc23)C[C@@H]2c3ccc(N4CCOC[C@H](N)C4)cc3CN12 [Example 22, 4-[(4R,10bS)-8-[(6R)-6-amino-1,4-oxazepan-4-yl]-4-methyl-3,4,6,10b-tetrahydro-1H-pyrazino[2,1-a]isoindol-2-yl]-1-methyl-1,8-naphthyridin-2-one]
> 9.52 | – | C[C@@H]1CNCCN1c1ccc2c(c1)CN1[C@H](C)CN(c3cc(=O)n(C)c4ncccc34)C[C@H]21 [Example 17, 4-[(4R,10bS)-4-methyl-8-[(2R)-2-methylpiperazin-1-yl]-3,4,6,10b-tetrahydro-1H-pyrazino[2,1-a]isoindol-2-yl]-1-methyl-1,8-naphthyridin-2-one]
8.00 | – | C[C@@H]1CN(c2cc(=O)n(C)c3ncccc23)C[C@@H]2c3ccc([C@H]4CC[C@@H](N5CCOCC5)CC4)cc3CN12 [Example 27B, 4-[(4R,10bS)-4-methyl-8-(cis-4-morpholinocyclohexyl)-3,4,6,10b-tetrahydro-1H-pyrazino[2,1-a]isoindol-2-yl]-1-methyl-1,8-naphthyridin-2-one]
9.00 | – | C[C@@H]1CN(c2ccc3c(c2)CN2[C@H](C)CN(c4cc(=O)n(C)c5ncccc45)C[C@H]32)CCN1 [Example 14, 4-[(4R,10bS)-4-methyl-8-[(3R)-3-methylpiperazin-1-yl]-3,4,6,10b-tetrahydro-1H-pyrazino[2,1-a]isoindol-2-yl]-1-methyl-1,8-naphthyridin-2-one]
8.14 | – | CO[C@H]1CN(c2ccc3c(c2)CN2[C@H](C)CN(c4cc(=O)n(C)c5ncccc45)C[C@H]32)CC[C@@H]1N [Example 8, 4-[(4R,10bS)-8-[(3S,4S)-4-amino-3-methoxy-1-piperidyl]-4-methyl-3,4,6,10b-tetrahydro-1H-pyrazino[2,1-a]isoindol-2-yl]-1-methyl-1,8-naphthyridin-2-one]

Compound | pIC50 (human TLR8) | CL (h) [1] [mL/min/kg]
C[C@@H]1CN(c2cc(=O)n(C)c3ncccc23)C[C@@H]2c3ccc([C@H]4C[C@H]5COC[C@@H](C4)N5)cc3CN12 [Example 28A, 4-[(4R,10bS)-4-methyl-8-(endo-3-oxa-9-azabicyclo[3.3.1]nonan-7-yl)-3,4,6,10b-tetrahydro-1H-pyrazino[2,1-a]isoindol-2-yl]-1-methyl-1,8-naphthyridin-2-one] | 8.77 | 9.2
C[C@@H]1CN(c2cc(=O)n(C)c3ncccc23)C[C@@H]2c3ccc(N4CC5CCC(C4)N5)cc3CN12 [Example 21, 4-[(4R,10bS)-8-(3,8-diazabicyclo[3.2.1]octan-3-yl)-4-methyl-3,4,6,10b-tetrahydro-1H-pyrazino[2,1-a]isoindol-2-yl]-1-methyl-1,8-naphthyridin-2-one] | 8.74 | 6.4
